This note sets out measurements from paper PMC9456425, “Aminopeptidase N Inhibitors as Pointers for Overcoming Antitumor Treatment Resistance” (International Journal of Molecular Sciences, 2022).

For data set [1], the target named is T1, APN (Microsomal Leucine aminopeptidase from porcine kidney EC 3.4.11.2) (Sus scrofa, UniProt P15145).
T1 construct: Microsomal Leucine aminopeptidase from porcine kidney EC 3.4.11.2, Type IV-S, ammonium sulfate suspension; purchased Sigma-Aldrich; host or cells: porcine kidney (tissue-derived, microsomal)
T1 sequence (P15145 1-963): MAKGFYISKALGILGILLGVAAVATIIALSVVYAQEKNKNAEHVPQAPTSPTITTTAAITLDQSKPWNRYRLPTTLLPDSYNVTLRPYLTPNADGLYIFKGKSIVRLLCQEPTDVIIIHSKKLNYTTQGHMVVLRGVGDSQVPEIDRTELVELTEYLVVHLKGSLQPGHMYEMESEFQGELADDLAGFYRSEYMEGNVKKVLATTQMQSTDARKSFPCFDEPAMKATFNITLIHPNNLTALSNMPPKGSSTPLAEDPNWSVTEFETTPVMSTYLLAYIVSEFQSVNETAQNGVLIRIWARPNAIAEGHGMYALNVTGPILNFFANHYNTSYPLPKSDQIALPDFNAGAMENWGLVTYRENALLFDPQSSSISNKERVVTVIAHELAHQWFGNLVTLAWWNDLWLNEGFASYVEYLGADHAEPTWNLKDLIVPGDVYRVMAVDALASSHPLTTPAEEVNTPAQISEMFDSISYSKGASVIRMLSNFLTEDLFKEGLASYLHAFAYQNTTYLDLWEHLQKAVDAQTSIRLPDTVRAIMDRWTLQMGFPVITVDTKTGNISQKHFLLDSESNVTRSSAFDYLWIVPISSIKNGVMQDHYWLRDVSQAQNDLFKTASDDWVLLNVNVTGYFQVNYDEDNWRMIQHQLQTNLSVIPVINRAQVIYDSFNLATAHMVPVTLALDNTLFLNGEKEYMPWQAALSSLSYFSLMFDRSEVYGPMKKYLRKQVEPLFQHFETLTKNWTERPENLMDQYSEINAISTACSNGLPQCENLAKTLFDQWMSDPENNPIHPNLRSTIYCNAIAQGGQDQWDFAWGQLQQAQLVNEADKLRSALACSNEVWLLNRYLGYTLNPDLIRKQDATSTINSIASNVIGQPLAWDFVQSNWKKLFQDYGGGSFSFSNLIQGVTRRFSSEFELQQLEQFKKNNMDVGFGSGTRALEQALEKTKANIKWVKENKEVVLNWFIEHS
The experiment in a line: APN inhibitory activity, spectrophotometry with L-leucine-p-nitroanilide. It is filed as biochemical. As for the experimental part: APN inhibitory activity was determined using a standardized spectrophotometry protocol using L-leucine-p-nitroanilide as a chromogenic substrate for APN. Measurements were performed in triplicate at 405 nm at a Cytation 3 well-plate reader.
In some compounds, solubility problems occurred, which complicated the inhibition activity determination. We overcame these either by the use of cosolvents or by an alternative HPLC approach. The details are summarized in the Supplementary Materials.
IC50 values against enzyme APN were determined using L-Leucine-p-nitroanilide (Sigma-Aldrich, Darmstadt, Germany) as the substrate and Microsomal Leucine aminopeptidase from porcine kidney EC 3.4.11.2, Type IV-S, ammonium sulfate suspension, 10–40 units/mg protein (Sigma-Aldrich, Darmstadt, Germany). The assay was performed by a Cytation 3 Cell Imaging Multi-Mode Reader (BioTek Instruments, Inc., Winooski, VT, USA) with appropriate Gen-5 software in 96-well plates. A 0.02 mol/L TRIS-HCl buffer solution at pH 7.5 was used as the assay buffer. All tested compounds were dissolved in TRIS-HCl buffer solution and compounds with poor solubility were dissolved in a small amount of DMSO or NMP used as a cosolvent. The assay mixture, which contained a variable amount of inhibitor solution (from 0 up to 80 μL), 10 μL of the enzyme solution, 5 μL of the substrate solution, and the assay buffer adjusted to 200 μL, was incubated at 37 °C for 40 min with short orbital shaking for 10 s. The hydrolysis of the substrate was monitored by the optical photometric method of absorbance in the visible and ultraviolet regions at a wavelength of 405 nm. The enzyme activity inhibitory rate was calculated from the measures of absorbance. The results of the 50% inhibitory activity of the enzyme (IC50) were determined through a regression analysis of the concentration/absorbance data by GraFit 5 software (Erithacus Software Ltd., East Grinstead, UK).

Another data set has as its system DU-145 cells. The data set is described as follows: WST-1 analysis of cell proliferation, DU-145. Format: cell-based, human. The settings on record: for Proliferation of control: 48 h. As for the experimental part:
(§1) The results are shown in Table 4, Figure 2, and the Supplementary Materials.
(§2) A human monocytic leukemia cell line (THP-1), human breast adenocarcinoma cells (MCF-7), and human prostate cancer (DU-145) cell line were obtained from ATCC. THP-1 and DU-145 cells were cultivated in an RPMI 1640 culture medium and MCF-7 cells were cultivated in a DMEM medium, both supplemented with the antibiotic solution (100 U/mL of penicillin, 100 µg/mL of streptomycin) and 10% FBS. Cells were maintained in a humidified incubator with 5% CO2 at 37 °C and were regularly tested for the presence of mycoplasma contamination.
(§3) THP-1, MCF-7, and DU-145 cells were seeded in 96-well plates. Adherent cell lines were allowed to attach to the wells for 24 h. Cells were then treated with various concentrations of tested compounds to reach the final concentrations ranging between 1 µM and 100 µM and were incubated for 48 h. Cell proliferation was determined using Cell Proliferation Reagent WST-1 (2-(4-iodophenyl)-3-(4-nitrophenyl)-5-(2,4-disulfophenyl)-2H-tetrazolium) (Roche Diagnostics, Mannheim, Germany), as previously described. WST-1 analysis was performed in three independent experiments, with each condition tested in triplicate. The IC50 values were determined using the nonlinear regression four-parameter logistic model using GraphPad Prism 5.00 software (GraphPad Software, San Diego, CA, USA). Statistical significance between the values was assessed by one-way analysis of variance (ANOVA) paired with Dunnett’s post hoc test using GraphPad Prism 5.00 software (GraphPad Software, San Diego, CA, USA) at levels of * p < 0.05, ** p < 0.01, and *** p < 0.001.

In another data set the test system is MCF-7 cells. The experiment in a line: WST-1 analysis of cell proliferation, MCF-7. Format: cell-based, human. The settings on record: for Proliferation of control: 48 h. The method, then:
as §1, §2, §3

Another data set concerns THP-1 cells. The data set is described as follows: WST-1 analysis of cell proliferation, THP-1. It is filed as cell-based, human. As to conditions: for Proliferation of control: 48 h. As for the experimental part:
as §1, §2, §3

Setting [2] is: DMSO as a cosolvent, read-out: IC50 Experimental.
Where [3] appears, read: logarithm of IC50 in µmol/L, read-out: Log IC50 Experimental (converted).
Setting [4] is: TRIS-HCl buffer pH 7.5, 37 °C, 40 min, no cosolvent noted, read-out: IC50 Experimental.
Where [5] appears, read: NMP as a cosolvent, read-out: IC50 Experimental.

Like-named read-outs stand apart in the source and are kept apart here. A value given as a limit tells only on which side of the number the result lay.

Regarding `CCN(CC)CC(=O)Nc1ccc(C(C)=O)cc1` [14-2-1], the IC50 in data set [1] (setting [2]) and in data set [1] (setting [3]) was 366 µM throughout.

In the case of `CC(=O)c1ccc(NC(=O)CN2CCCCC2)cc1` [14-6-1], in data set [1] (setting [4]), the IC50 was found to be 173 µM.

In the case of `CC(=O)c1ccc(NC(=O)CN2CCOCC2)cc1` [14-8-1], the IC50 in data set [1] (setting [4]) was 425 µM.

Regarding `CC(=O)c1ccc(NC(=O)CN2CCN(Cc3ccccc3)CC2)cc1` [14-10-1], the IC50 in data set [1] (setting [2]) was 427 µM.

Turning to `CC(=NNC(N)=S)c1ccccc1NC(=O)CN1CCCCC1` [22-6-1], the half-inhibitory concentration (IC50) in data set [1] (setting [4]) turned out to be 778 µM.

Turning to `CC(=NNC(N)=S)c1ccccc1NC(=O)CN1CCCCCC1` [22-7-1], the IC50 in data set [1] (setting [4]) and in data set [1] (setting [3]) was 169 µM in each case.

For the compound `CCCN(CCC)CC(=O)Nc1ccc(C(C)=NNC(N)=S)cc1` [24-3-1], the IC50 in data set [1] (setting [4]) and in data set [1] (setting [3]) was 1270 µM in each case.

Regarding `CCCCN(CCCC)CC(=O)Nc1ccc(C(C)=NNC(N)=S)cc1` [24-4-1], the IC50 in data set [1] (setting [5]) and in data set [1] (setting [3]) was 1680 µM each time.

For `CC(=NNC(N)=S)c1ccc(NC(=O)CN2CCCC2)cc1` [24-5-1], the half-maximal inhibitory concentration (IC50) in data set [1] (setting [5]) and in data set [1] (setting [3]) was 35.6 µM throughout.

Consider `CC(=NNC(N)=S)c1ccc(NC(=O)CN2CCCCC2)cc1` [24-6-1], for which the IC50 in data set [1] (setting [5]) and in data set [1] (setting [3]) was 1550 µM each time.

As for `CC(=NNC(N)=S)c1ccc(NC(=O)CN2CCCCCC2)cc1` [24-7-1], the IC50 in data set [1] (setting [4]) and in data set [1] (setting [3]) was 44.1 µM each time.

`CC(=NNC(N)=S)c1ccc(NC(=O)CN2CCOCC2)cc1` [24-8-1, 4-[(morpholine-4-yl)acetamido]acetophenone thiosemicarbazone]: in data set [1] (setting [3]), the half-inhibitory concentration (IC50) is 6.79 µM.

As to `CC(=NNC(N)=O)c1ccc(NC(=O)CN2CCCCC2)cc1` [34-6-1, 4-[2-(piperidine-1-yl)acetamido]acetophenone semicarbazone], the Proliferation of control in the data set on DU-145 cells (DU-145, 1 μmol/l) was found to be 98.33%; in the data set on DU-145 cells (DU-145, 5 μmol/l), 98.26%; in the data set with DU-145 cells (DU-145, 10 μmol/l) it was 97.24%; in the data set on DU-145 cells (DU-145, 30 μmol/l), 97.25%; with DU-145 cells (DU-145, 50 μmol/l), 96.59%; in the data set with DU-145 cells (DU-145, 75 μmol/l), 99.61%. The Proliferation of control in the data set with DU-145 cells (DU-145, 100 μmol/l) was determined as 99.25%; in the data set with MCF-7 cells (MCF-7, 1 μmol/l), 100.09%; with MCF-7 cells (MCF-7, 5 μmol/l), 96.80%; with MCF-7 cells (MCF-7, 10 μmol/l), 97.62%; with MCF-7 cells (MCF-7, 30 μmol/l), 96.30%; in the data set on MCF-7 cells (MCF-7, 50 μmol/l), 99.57%. Further, the Proliferation of control in the data set on MCF-7 cells (MCF-7, 75 μmol/l) is on record as 85.41%; in the data set on MCF-7 cells (MCF-7, 100 μmol/l) it was 81.17%; in the data set on THP-1 cells (THP-1, 1 μmol/l), 97.78%; in the data set on THP-1 cells (THP-1, 5 μmol/l), 97.58%; in the data set with THP-1 cells (THP-1, 10 μmol/l), 93.87%; in the data set on THP-1 cells (THP-1, 30 μmol/l) it was 86.64%. Besides, the Proliferation of control in the data set on THP-1 cells (THP-1, 50 μmol/l) amounted to 73.78%; in the data set on THP-1 cells (THP-1, 75 μmol/l) it was 71.38%; with THP-1 cells (THP-1, 100 μmol/l) it was 69.17%. Also, the “antiproliferative effect (in words)” value with DU-145 cells (DU-145, no APN expression) is reported as “did not affect proliferation at all”. Also, the IC50 in the data set on DU-145 cells (Homo sapiens, DU-145, 48 h incubation) is over 100 µM; with MCF-7 cells (Homo sapiens, MCF7, MCF-7, 48 h incubation), over 100 µM; in the data set on THP-1 cells (Homo sapiens, THP-1, 48 h incubation), over 100 µM; in data set [1] (setting [4]), 18.4 µM; in data set [1] (setting [3]) it was 18.4 µM.

With `CC(=NNC(N)=O)c1ccc(NC(=O)CN2CCOCC2)cc1` [34-8-1], the melting point lay in the range of 231.1 to 231.8 °C. Besides, the IC50 in data set [1] (setting [4]) amounted to 1640 µM. Besides, in data set [1] (setting [3]), the IC50 is 1640 µM.
